Source: publication PMC4648050, “Discovery of Inhibitors of Trypanosoma brucei by Phenotypic Screening of a Focused Protein Kinase Library” (Chemmedchem, 2015)

Key:
[1] = target: Lck (Homo sapiens, UniProt P06239); test: Kinase panel: Lck; assay type: biochemical, human/mammalian; settings: compound at 10 μM, read-out: % of activity respect of the control
Procedure: (§1) The DDU kinase-focused compound set contains lead-like scaffolds that are designed to target protein kinases; they have kinase hinge binding motifs. Four of the 1H-imidazopyrazinones were screened against a human/mammalian kinase panel at the University of Dundee (http://www.kinase-screen.mrc.ac.uk) at a concentration of 10 μM. At the time of testing the panel contained 79 mammalian kinases selected to provide a broad coverage of the mammalian kinome (∼500 kinases in the human genome).[3] None of the compounds were active against any of the kinases at 10 μM.

[2] = target: SYK (Homo sapiens, UniProt P43405); test: Kinase panel: SYK; assay type: biochemical, human/mammalian; settings: compound at 10 μM, read-out: % of activity respect of the control
Procedure: as §1

[3] = target: CK1 (Homo sapiens, UniProt P48730); test: Kinase panel: CK1; assay type: biochemical, human/mammalian; settings: compound at 10 μM, read-out: % of activity respect of the control
CK1, sequence (P48730 whole entry): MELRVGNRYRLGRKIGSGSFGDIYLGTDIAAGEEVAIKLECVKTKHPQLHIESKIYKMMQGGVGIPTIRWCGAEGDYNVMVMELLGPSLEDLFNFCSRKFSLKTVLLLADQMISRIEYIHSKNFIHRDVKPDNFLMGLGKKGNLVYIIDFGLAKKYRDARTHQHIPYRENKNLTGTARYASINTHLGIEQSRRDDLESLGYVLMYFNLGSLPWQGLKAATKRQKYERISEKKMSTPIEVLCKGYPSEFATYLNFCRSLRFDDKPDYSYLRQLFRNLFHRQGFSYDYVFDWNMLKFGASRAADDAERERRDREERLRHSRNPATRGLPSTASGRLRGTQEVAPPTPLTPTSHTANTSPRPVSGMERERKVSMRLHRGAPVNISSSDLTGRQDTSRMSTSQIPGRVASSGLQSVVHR
Procedure: as §1

[4] = target: PKBa (Homo sapiens, UniProt P31749); test: Kinase panel: PKBa; assay type: biochemical, human/mammalian; settings: compound at 10 μM, read-out: % of activity respect of the control
PKBa, sequence (P31749 whole entry): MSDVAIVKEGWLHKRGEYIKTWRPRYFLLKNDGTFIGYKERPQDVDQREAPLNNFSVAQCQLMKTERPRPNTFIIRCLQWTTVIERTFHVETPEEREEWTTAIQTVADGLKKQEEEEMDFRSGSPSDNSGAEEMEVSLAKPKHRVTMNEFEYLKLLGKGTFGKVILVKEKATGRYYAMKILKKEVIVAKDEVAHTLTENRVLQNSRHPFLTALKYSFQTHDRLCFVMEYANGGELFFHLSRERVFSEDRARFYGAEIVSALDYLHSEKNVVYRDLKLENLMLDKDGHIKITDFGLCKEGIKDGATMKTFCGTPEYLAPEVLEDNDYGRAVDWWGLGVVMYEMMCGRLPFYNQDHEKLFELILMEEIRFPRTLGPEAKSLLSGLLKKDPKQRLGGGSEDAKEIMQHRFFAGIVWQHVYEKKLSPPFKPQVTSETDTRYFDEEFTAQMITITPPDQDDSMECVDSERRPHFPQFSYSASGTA
Procedure: as §1

[5] = Intrinsic clearance in mouse liver microsomes; assay type: in vitro ADME; settings: mouse hepatic microsomes, 0.5 μM compound
Procedure: Intrinsic clearance experiments: Test compound (0.5 μM) was incubated with female CD1 mouse liver microsomes (Xenotech LLC; 0.5 mg mL^−1 50 mM potassium phosphate buffer, pH 7.4), and the reaction started with the addition of excess NADPH (8 mg mL^−1 50 mM potassium phosphate buffer, pH 7.4). Immediately, at t0, then at 3, 6, 9, 15, and 30 min an aliquot (50 μL) of the incubation mixture was removed and mixed with MeCN (100 μL) to stop the reaction. Internal standard was added to all samples, the samples were centrifuged to sediment precipitated protein, and the plates were then sealed prior to UPLC–MS/MS analysis using a Quattro Premier XE instrument (Waters Corp., USA). XLfit (IDBS, UK) was used to calculate the exponential decay and consequently the rate constant (k) from the ratio of peak area of test compound to internal standard at each time point. The rate of intrinsic clearance [CLint, mL min^−1 (g liver)^−1] of each test compound was then calculated with Equation (3): […]
in which V [mL (mg protein)^−1] is the incubation volume per mg protein added, and microsomal protein yield is taken as 52.5 mg protein per gram of liver. Verapamil (0.5 μM) was used as a positive control to confirm acceptable assay performance.

[6] = target: T1, SGK1 (Homo sapiens, UniProt O00141); test: Kinase panel: SGK1; assay type: biochemical, human/mammalian; settings: compound at 10 μM, read-out: % of activity respect of the control
T1 sequence (O00141 1-431): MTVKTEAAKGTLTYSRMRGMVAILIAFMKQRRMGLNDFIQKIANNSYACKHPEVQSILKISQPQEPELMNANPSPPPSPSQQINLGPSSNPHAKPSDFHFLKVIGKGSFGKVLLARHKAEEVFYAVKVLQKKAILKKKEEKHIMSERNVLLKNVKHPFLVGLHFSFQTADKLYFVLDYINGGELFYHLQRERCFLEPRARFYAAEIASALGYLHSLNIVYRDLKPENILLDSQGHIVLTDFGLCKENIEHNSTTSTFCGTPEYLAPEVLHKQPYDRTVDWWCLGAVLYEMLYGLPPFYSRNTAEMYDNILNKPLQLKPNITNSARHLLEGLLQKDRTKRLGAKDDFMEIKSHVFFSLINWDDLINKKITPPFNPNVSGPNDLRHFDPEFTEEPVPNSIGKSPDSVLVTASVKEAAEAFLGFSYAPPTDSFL
Procedure: as §1

[7] = target: GSK3b (Homo sapiens, UniProt P49841); test: Kinase panel: GSK3b; assay type: biochemical, human/mammalian; settings: compound at 10 μM, read-out: % of activity respect of the control
Procedure: as §1

[8] = tested on: PHK; test: Kinase panel: PHK; assay type: biochemical, human/mammalian; settings: compound at 10 μM
Procedure: as §1

[9] = target: PLK1 (Homo sapiens, UniProt P53350); test: Kinase panel: PLK1; assay type: biochemical, human/mammalian; settings: compound at 10 μM, read-out: % of activity respect of the control
PLK1, sequence (P53350 whole entry): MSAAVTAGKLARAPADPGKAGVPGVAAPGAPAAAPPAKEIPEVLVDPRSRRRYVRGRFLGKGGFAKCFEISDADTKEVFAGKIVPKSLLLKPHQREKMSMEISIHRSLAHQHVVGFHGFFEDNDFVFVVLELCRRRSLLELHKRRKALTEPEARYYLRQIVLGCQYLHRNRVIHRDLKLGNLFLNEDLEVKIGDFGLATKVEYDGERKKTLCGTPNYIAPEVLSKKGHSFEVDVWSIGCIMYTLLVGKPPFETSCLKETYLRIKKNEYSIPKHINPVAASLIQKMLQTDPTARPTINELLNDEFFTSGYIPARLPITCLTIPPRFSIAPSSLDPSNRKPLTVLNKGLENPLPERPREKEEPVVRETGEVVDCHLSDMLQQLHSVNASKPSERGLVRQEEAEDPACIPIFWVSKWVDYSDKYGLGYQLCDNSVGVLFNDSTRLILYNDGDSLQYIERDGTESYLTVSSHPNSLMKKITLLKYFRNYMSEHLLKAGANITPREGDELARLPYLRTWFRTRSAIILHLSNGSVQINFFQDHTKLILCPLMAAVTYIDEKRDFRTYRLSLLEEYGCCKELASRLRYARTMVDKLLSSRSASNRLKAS
Procedure: as §1

[10] = target: PKA (Homo sapiens, UniProt P17612); test: Kinase panel: PKA; assay type: biochemical, human/mammalian; settings: compound at 10 μM, read-out: % of activity respect of the control
Procedure: as §1

[11] = target: T2, MST2 (Homo sapiens, UniProt Q13188); test: Kinase panel: MST2; assay type: biochemical, human/mammalian; settings: compound at 10 μM, read-out: % of activity respect of the control
T2 sequence (Q13188 1-491): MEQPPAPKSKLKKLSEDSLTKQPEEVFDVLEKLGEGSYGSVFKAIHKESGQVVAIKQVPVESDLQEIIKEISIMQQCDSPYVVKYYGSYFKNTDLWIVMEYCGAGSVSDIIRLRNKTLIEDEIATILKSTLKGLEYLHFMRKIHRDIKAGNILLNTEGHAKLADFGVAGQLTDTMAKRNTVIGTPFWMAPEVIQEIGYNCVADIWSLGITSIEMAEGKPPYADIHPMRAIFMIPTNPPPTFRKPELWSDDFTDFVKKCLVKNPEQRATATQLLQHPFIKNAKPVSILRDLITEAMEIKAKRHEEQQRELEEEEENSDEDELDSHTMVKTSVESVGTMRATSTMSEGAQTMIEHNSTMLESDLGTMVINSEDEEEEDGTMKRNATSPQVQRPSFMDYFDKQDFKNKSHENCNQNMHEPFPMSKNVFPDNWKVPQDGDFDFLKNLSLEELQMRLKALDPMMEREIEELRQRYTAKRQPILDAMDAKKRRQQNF
Procedure: as §1

[12] = target: PIM1 (Homo sapiens, UniProt P11309); test: Kinase panel: PIM1; assay type: biochemical, human/mammalian; settings: compound at 10 μM, read-out: % of activity respect of the control
PIM1, sequence (P11309 whole entry): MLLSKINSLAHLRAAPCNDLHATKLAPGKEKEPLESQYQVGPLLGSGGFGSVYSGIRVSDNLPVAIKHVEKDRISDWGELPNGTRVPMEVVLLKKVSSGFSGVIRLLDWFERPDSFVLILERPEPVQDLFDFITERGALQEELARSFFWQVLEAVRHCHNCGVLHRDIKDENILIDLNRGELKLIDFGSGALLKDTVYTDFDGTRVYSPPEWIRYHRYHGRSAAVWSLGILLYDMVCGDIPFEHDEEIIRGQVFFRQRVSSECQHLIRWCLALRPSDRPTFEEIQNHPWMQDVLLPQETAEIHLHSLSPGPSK
Procedure: as §1

[13] = target: MSK1 (Homo sapiens, UniProt O75582); test: Kinase panel: MSK1; assay type: biochemical, human/mammalian; settings: compound at 10 μM, read-out: % of activity respect of the control
Procedure: as §1

[14] = target: PAK5 (Homo sapiens, UniProt Q9P286); test: Kinase panel: PAK5; assay type: biochemical, human/mammalian; settings: compound at 10 μM, read-out: % of activity respect of the control
PAK5, sequence (Q9P286 whole entry): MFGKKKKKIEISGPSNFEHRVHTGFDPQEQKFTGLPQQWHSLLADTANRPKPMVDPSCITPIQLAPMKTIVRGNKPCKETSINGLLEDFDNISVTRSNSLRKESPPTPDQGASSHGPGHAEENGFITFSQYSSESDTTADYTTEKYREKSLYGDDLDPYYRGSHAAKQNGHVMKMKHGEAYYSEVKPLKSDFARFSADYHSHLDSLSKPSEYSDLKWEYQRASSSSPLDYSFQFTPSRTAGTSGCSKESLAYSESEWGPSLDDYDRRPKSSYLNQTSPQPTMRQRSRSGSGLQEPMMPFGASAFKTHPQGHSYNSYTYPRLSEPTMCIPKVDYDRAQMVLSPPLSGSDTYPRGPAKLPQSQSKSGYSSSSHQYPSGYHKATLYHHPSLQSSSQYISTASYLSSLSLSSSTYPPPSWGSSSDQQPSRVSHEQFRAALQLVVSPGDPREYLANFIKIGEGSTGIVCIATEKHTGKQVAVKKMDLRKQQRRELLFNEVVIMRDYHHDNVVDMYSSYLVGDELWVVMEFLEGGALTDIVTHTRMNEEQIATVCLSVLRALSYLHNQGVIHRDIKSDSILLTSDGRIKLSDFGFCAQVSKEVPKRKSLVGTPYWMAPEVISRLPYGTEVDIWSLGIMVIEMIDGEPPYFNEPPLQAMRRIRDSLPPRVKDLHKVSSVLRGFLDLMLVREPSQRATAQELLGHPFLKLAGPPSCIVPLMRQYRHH
Procedure: as §1

[15] = target: CAMKKb (Homo sapiens, UniProt Q96RR4); test: Kinase panel: CAMKKb; assay type: biochemical, human/mammalian; settings: compound at 10 μM, read-out: % of activity respect of the control
CAMKKb, sequence (Q96RR4 whole entry): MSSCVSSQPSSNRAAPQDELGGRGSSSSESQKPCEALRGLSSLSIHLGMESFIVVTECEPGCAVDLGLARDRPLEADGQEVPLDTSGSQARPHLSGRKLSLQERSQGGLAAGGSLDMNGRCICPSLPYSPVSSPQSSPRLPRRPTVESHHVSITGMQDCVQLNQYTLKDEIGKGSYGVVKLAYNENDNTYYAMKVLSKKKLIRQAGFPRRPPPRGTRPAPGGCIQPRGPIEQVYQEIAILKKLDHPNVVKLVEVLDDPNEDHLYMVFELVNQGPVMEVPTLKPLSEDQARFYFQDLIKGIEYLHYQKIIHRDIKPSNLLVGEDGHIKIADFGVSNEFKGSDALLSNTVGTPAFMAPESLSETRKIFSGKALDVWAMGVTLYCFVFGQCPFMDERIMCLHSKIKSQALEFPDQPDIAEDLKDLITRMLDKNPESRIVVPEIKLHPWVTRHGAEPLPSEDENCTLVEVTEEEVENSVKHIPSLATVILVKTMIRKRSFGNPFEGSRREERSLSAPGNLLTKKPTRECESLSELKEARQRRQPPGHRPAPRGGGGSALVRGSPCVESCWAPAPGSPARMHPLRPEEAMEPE
Procedure: as §1

[16] = target: ERK2 (Homo sapiens, UniProt P28482); test: Kinase panel: ERK2; assay type: biochemical, human/mammalian; settings: compound at 10 μM, read-out: % of activity respect of the control
Procedure: as §1

[17] = target: IGF-1R (Homo sapiens, UniProt P08069); test: Kinase panel: IGF-1R; assay type: biochemical, human/mammalian; settings: compound at 10 μM, read-out: % of activity respect of the control
IGF-1R, sequence (P08069 31-1367): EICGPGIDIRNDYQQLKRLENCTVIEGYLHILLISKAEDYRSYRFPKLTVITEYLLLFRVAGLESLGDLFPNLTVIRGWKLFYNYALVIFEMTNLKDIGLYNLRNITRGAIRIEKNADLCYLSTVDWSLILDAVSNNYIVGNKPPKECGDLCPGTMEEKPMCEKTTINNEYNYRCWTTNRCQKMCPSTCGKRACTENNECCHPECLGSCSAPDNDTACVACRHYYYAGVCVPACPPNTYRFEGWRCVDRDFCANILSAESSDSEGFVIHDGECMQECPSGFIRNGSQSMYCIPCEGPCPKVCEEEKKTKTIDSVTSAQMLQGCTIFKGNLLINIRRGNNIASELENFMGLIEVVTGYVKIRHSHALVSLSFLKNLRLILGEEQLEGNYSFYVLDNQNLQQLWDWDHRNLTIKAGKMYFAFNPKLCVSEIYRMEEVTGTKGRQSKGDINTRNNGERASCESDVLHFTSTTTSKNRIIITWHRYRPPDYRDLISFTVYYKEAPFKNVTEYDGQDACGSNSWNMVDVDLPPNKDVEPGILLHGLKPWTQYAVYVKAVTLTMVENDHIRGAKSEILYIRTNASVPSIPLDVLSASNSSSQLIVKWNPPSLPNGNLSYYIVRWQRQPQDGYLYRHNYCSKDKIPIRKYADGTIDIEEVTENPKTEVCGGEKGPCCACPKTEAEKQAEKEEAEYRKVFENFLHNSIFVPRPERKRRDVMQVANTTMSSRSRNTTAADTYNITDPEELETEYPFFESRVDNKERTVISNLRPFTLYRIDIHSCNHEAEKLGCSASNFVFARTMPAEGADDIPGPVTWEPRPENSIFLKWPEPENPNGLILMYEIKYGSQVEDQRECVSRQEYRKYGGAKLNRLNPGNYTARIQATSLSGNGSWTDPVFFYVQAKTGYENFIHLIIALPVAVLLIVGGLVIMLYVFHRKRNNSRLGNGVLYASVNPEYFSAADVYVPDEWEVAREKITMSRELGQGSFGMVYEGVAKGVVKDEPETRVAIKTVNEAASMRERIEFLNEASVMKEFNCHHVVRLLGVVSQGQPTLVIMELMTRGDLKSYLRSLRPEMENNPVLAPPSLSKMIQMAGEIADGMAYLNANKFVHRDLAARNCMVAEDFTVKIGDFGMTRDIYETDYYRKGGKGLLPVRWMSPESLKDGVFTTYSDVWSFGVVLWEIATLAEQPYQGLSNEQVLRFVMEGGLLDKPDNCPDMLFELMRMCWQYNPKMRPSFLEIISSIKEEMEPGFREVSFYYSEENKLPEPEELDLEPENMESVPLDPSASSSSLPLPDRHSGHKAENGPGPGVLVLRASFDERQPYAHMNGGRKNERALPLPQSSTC
Procedure: as §1

Lck, sequence (P06239 whole entry): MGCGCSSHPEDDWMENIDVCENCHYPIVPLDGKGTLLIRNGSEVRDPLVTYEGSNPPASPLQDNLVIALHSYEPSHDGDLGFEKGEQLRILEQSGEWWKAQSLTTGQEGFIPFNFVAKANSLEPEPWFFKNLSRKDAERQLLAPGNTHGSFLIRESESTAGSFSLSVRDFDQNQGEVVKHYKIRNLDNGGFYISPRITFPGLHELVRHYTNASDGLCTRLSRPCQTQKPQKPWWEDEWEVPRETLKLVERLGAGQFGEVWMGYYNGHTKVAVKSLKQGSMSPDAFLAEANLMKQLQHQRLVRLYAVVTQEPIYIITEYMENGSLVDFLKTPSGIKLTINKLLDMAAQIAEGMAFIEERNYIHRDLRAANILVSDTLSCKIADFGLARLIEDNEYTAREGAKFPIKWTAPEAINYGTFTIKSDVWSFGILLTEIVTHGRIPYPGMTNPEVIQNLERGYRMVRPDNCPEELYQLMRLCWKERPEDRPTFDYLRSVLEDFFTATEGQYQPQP

Structure (SMILES) | remaining activity at 10 µM [1] [%] | remaining activity at 10 µM [2] [%] | remaining activity at 10 µM [3] [%] | remaining activity at 10 µM [4] [%] | CLint [5] [mL/min/g] | remaining activity at 10 µM [6] [%] | remaining activity at 10 µM [7] [%] | % of activity respect of the control [8] [%] | remaining activity at 10 µM [9] [%] | remaining activity at 10 µM [10] [%] | remaining activity at 10 µM [11] [%] | remaining activity at 10 µM [12] [%] | remaining activity at 10 µM [13] [%] | remaining activity at 10 µM [14] [%] | remaining activity at 10 µM [15] [%] | remaining activity at 10 µM [16] [%] | remaining activity at 10 µM [17] [%]
CC(c1ccccc1)n1c(=O)[nH]c2ncc(-c3ccc(F)cc3)nc21 (stereo not shown) [Compound 1] | 90 | 97 | 75 | 99 | < 0.5 | 104 | 63 | 103 | 111 | 87 | 86 | 80 | 89 | 84 | 101 | 65 | 122
O=c1[nH]c2ncc(-c3ccc(F)cc3)nc2n1CC1CC1 [Compound 10] | 99 | 98 | 75 | 96 | – | 110 | 37 | 97 | 102 | 93 | 92 | 79 | 89 | 95 | 98 | 84 | 85
O=c1[nH]c2ncc(-c3ccc(F)cc3)nc2n1C1CCCCC1 [Compound 12, 1-Cyclohexyl-6-(4-fluorophenyl)-1H-imidazo[4,5-b]pyrazin-2(3H)-one] | 105 | 100 | 98 | 102 | 0.7 | 111 | 70 | 110 | 117 | 95 | 94 | 82 | 97 | 100 | 104 | 41 | 100
C[C@H](c1ccccc1)n1c(=O)[nH]c2ncc(-c3ccccc3)nc21 [Compound 14, (R)-6-Phenyl-1-(1-phenylethyl)-1H-imidazo[4,5-b]pyrazin-2(3H)-one] | 89 | 84 | 71 | 89 | – | 98 | 66 | 94 | 104 | 72 | 78 | 72 | 93 | 80 | 86 | 121 | 112
O=c1[nH]c2ncc(-c3ccccc3CO)nc2n1C1CCCCC1 [Compound 28] | – | – | – | – | 2.4 | – | – | – | – | – | – | – | – | – | – | – | –
